# According to patent publication US20170354670A1, “PRODUCT COMPRISING GLUCOSAMINE FOR EXTERNAL APPLICATION” (Vital Medicine, LLC, priority 2016, published 2017):
# Test system: foot complaints (tired, achy, sore)
# Experiment: Foot bath study of foot pain (100 mm visual analogue scale) versus sucrose sham
# Type: in vivo, human
# Text: Subjects: Normal healthy adults aged 40-75 with daily reported foot complaints (tired, achy, sore) that are not currently taking prescription or over the counter products for symptom relief. An attempt is made to recruit equal numbers of male and female participants. Sample Size: 40 subjects; 20 per group Treatment groups: Soothing foot bath topical fluid application apparatus (Glucosamine KCl), group A; Sham: Sucrose foot bath topical fluid application apparatus, group B. Methods: Recruitment—Questionnaire evaluating health status and foot complaints; including visual analogue scale evaluation of current pain state. Baseline—Questionnaire evaluating health status and foot complaints; including visual analogue scale evaluation of current pain state. Treatment—Subjects are randomly assigned to one of two treatment groups and asked to submerge their right foot in a plastic box that contains 3 liters of room temperature tap water and 2 liters of boiling water plus one packet (50 grams) of the labeled “treatment pack” and stirred until in solution. Label is removed from pack and placed on chart. Foot remains submerged and stopwatch set for 1 hour. At the end of 1 hour, subject foot is dried and subject is asked to mark on the line (100 mm) the current state of their foot pain upon standing. […]
compound,measurement,setting,value
"N[C@H]1C(O)OC(CO)[C@@H](O)[C@@H]1O (stereo partly drawn) [glucosamine, (3R,4R,5S)-3-Amino-6-(hydroxymethyl)oxane-2,4,5-triol]","pain relief compared with sucrose sham, duration","72 hours after treatment, single 1 hour foot bath, 50 grams in 5 liters water, many subjects",greater pain relief
same,pain relief compared with sucrose sham (group B),"healthy adults aged 40-75 with daily foot complaints, right foot submerged 1 hour in 5 liters water with 50 grams treatment pack, visual analogue scale",sufficiently better pain relief
